Source: PubChem BioAssay AID2060500 (Molecular Pharmacology Branch, DTP, NCI, 2025)

System: 596521-263-R-J1-PDC complex spheroids, viability % of control
Experiment: Anticancer human tumor 596521-263-R-J1-PDC patient-derived soft tissue sarcoma cell line growth inhibition [GQUAD]
Details: for IC50: curve of first compound; for viability, T/C: stronger effect = lower value
From the text: DNA G-quadruplex Stabilizer Agents in Combinations in Complex Spheroids
A high-throughput screen of multi-cell type tumor spheroids was designed to identify active combinations of DNA G-quadruplex stabilizer agents and targeted small molecules. Complex spheroids include a stromal component modeled by human endothelial cells (HUVEC) and fibroblasts modeled by human mesenchymal stem cells (MSCs). The concentration ranges selected for each drug and investigational agent were based upon clinically achievable concentrations if the clinical Cmax of the agent was known.
Compounds. The drugs and investigational agents: pidnarulex (CX-5461; NSC782164), APTO-253 (NSC789042), BRACO-19 (NSC847499), peposertib (NSC802822), ceralasertib (NSC780249), elimusertib (NSC800525), camonsertib (NSC841442), AZD-1390 (NSC803789), olaparib (NSC753686), talazoparib (NSC767125), ART-558 (NSC835418), sotorasib (NSC818433), MRTX-1133 (NSC836407), SN-38 (NSC673596), topotecan (NSC609699), etoposide (NSC141540), doxorubicin (NSC123127), gemcitabine (NSC613327), 5-fluorouracil (NSC19893), paclitaxel (NSC125973), vemurafenib (NSC761431), panobinostat (NSC761190), R-306465 (JNJ-16241199; NSC773264), adavosertib (NSC754352), TP-3654 (NSC805149), carboplatin (NSC241240), KSQ-4279 (NSC840948), and staurosporine (NSC755774) were obtained from the National Cancer Institute (NCI) Developmental Therapeutics Program Chemical Repository (34). The FDA-approved anticancer drug set is available from the NCI Developmental Therapeutics Program. […] The stock solutions were prepared in dimethyl sulfoxide (DMSO, Sigma-Aldrich, St. Louis, MO, cat. D2650) at 800-fold the tested concentration and stored at -70 degrees C prior to their use. All drugs and investigational agents were tested over a range starting from a high concentration at or near the clinical Cmax and decreasing in half-log increments. If the clinical Cmax for an agent had not been determined, the highest concentration tested was 10 microM.
2.3 Cell Culture. All cells were maintained in an incubator at 37 degrees C and 5% CO2 with 95% humidity. The PDC lines were cultured according to standard operating procedures established by the NCI PDMR. All PDCs were thawed and cultured in Matrigel-coated flasks prepared with a working solution of 1X Ham's F-12 nutrient mix, without supplementation (Invitrogen, cat. 11765054), 100 U/mL penicillin-streptomycin (Invitrogen, cat. 15140122), and 2.5% Matrigel (Corning Inc., cat. 354248) for the first three passages. The 857933-349-R-J2-PDC line was cultured in 6C/Colon 1B media, which includes advanced DMEM/F-12 (Thermo Fisher Scientific, cat. 12634028), 10 mM HEPES (Thermo Fisher Scientific, cat. 15630080), 1X GlutaMAX supplement (Thermo Fisher Scientific, cat. 35050061), 0.1 mg/mL primocin (InvivoGen, cat. ant-pm-2), 10% defined fetal bovine serum, heat inactivated (HyClone Laboratories Inc., cat. SH30070.03HI), 50% L-WRN conditioned media (ATCC, cat. CRL-3276), 1.25 mM N-Acetyl-L-cysteine (Sigma-Aldrich, cat. A9165), 10 mM nicotinamide (Sigma-Aldrich, cat. N0636), 1X B-27 supplement (Thermo Fisher Scientific, cat. 17504044), 1X N-2 supplement (Thermo Fisher Scientific, cat. 17502048), 10 microM Y-27632 dihydrochloride (Tocris Bioscience, cat. 1254), and 50 ng/mL human EGF recombinant protein (Thermo Fisher Scientific, cat. PHG0311). The 485176-168-R4-J1-PDC line was cultured in Panc media, which includes all 6C/Colon 1B media components plus 100 ng/mL human FGF-10 (Thermo Fisher Scientific, cat. 100-26), 500 nM SB-431542 (Selleckchem, cat. S1067), and gastrin (Tocris, cat. 3006).
[…]

[1] = second compound 0.0316 µM, first compound 0.0316 µM
[2] = second compound 0.0316 µM, first compound 0.316 µM
[3] = second compound 0.1 µM, first compound 0.0316 µM
[4] = second compound 0.1 µM, first compound 0.316 µM
[5] = second compound 0.316 µM, first compound 0.0316 µM
[6] = second compound 0.316 µM, first compound 0.316 µM
[7] = second compound 1 µM, first compound 0.0316 µM
[8] = second compound 1 µM, first compound 0.316 µM
[9] = second compound 3.16 µM, first compound 0.0316 µM
[10] = second compound 3.16 µM, first compound 0.316 µM
[11] = second compound 10 µM, first compound 0.0316 µM
[12] = second compound 10 µM, first compound 0.316 µM
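Further: spheroids exposed to drugs for 7 days before viability reading.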

SMILES: C=CC(=O)N1CCN(c2nc(=O)n(-c3c(C)ccnc3C(C)C)c3nc(-c4c(O)cccc4F)c(F)cc23)C(C)C1 (centres undefined) + CN(C)c1ccc(Nc2c3ccc(NC(=O)CCN4CCCC4)cc3nc3cc(NC(=O)CCN4CCCC4)ccc23)cc1
- IC50 (second compound 0.0316 µM): > 10000 nM
- IC50 (second compound 0.1 µM): > 10000 nM
- IC50 (second compound 0.316 µM): > 10000 nM
- IC50 (second compound 1 µM): > 10000 nM
- IC50 (second compound 3.16 µM): > 10000 nM
- IC50 (second compound 10 µM): > 10000 nM
- viability, T/C [1]: 114%
- viability, T/C (second compound 0.0316 µM, first compound 0.1 µM): 94.2%
- viability, T/C [2]: 112%
- viability, T/C (second compound 0.0316 µM, first compound 1 µM): 101%
- viability, T/C (second compound 0.0316 µM, first compound 3.16 µM): 98.2%
- viability, T/C (second compound 0.0316 µM, first compound 10 µM): 69.6%
- viability, T/C [3]: 110%
- viability, T/C (second compound 0.1 µM, first compound 0.1 µM): 102%
- viability, T/C [4]: 96.9%
- viability, T/C (second compound 0.1 µM, first compound 1 µM): 105%
- viability, T/C (second compound 0.1 µM, first compound 3.16 µM): 103%
- viability, T/C (second compound 0.1 µM, first compound 10 µM): 69.2%
- viability, T/C [5]: 110%
- viability, T/C (second compound 0.316 µM, first compound 0.1 µM): 99.5%
- viability, T/C [6]: 98.8%
- viability, T/C (second compound 0.316 µM, first compound 1 µM): 97.3%
- viability, T/C (second compound 0.316 µM, first compound 3.16 µM): 96.9%
- viability, T/C (second compound 0.316 µM, first compound 10 µM): 77.9%
- viability, T/C [7]: 96.2%
- viability, T/C (second compound 1 µM, first compound 0.1 µM): 108%
- viability, T/C [8]: 103%
- viability, T/C (second compound 1 µM, first compound 1 µM): 103%
- viability, T/C (second compound 1 µM, first compound 3.16 µM): 93.7%
- viability, T/C (second compound 1 µM, first compound 10 µM): 83.6%
- viability, T/C [9]: 86.6%
- viability, T/C (second compound 3.16 µM, first compound 0.1 µM): 103%
- viability, T/C [10]: 94.2%
- viability, T/C (second compound 3.16 µM, first compound 1 µM): 92.1%
- viability, T/C (second compound 3.16 µM, first compound 3.16 µM): 111%
- viability, T/C (second compound 3.16 µM, first compound 10 µM): 67.6%
- viability, T/C [11]: 71.3%
- viability, T/C (second compound 10 µM, first compound 0.1 µM): 70.3%
- viability, T/C [12]: 77.2%
- viability, T/C (second compound 10 µM, first compound 1 µM): 75.6%
- viability, T/C (second compound 10 µM, first compound 3.16 µM): 76.3%
- viability, T/C (second compound 10 µM, first compound 10 µM): 58.3%

SMILES: CCc1c2c(nc3ccc(O)cc13)-c1cc3c(c(=O)n1C2)COC(=O)[C@]3(O)CC + CN(C)c1ccc(Nc2c3ccc(NC(=O)CCN4CCCC4)cc3nc3cc(NC(=O)CCN4CCCC4)ccc23)cc1
- IC50 (second compound 0.0316 µM): 5.08 nM
- IC50 (second compound 0.1 µM): 4.06 nM
- IC50 (second compound 0.316 µM): 3.51 nM
- IC50 (second compound 1 µM): 7.44 nM
- IC50 (second compound 3.16 µM): 5.64 nM
- IC50 (second compound 10 µM): 3.75 nM
- viability, T/C (second compound 0.0316 µM, first compound 0.000999 µM): 66.2%
- viability, T/C (second compound 0.0316 µM, first compound 0.00316 µM): 54.6%
- viability, T/C (second compound 0.0316 µM, first compound 0.00999 µM): 43.2%
- viability, T/C [1]: 28.7%
- viability, T/C (second compound 0.0316 µM, first compound 0.0999 µM): 16.5%
- viability, T/C [2]: 7.38%
- viability, T/C (second compound 0.1 µM, first compound 0.000999 µM): 60.4%
- viability, T/C (second compound 0.1 µM, first compound 0.00316 µM): 51.8%
- viability, T/C (second compound 0.1 µM, first compound 0.00999 µM): 41.3%
- viability, T/C [3]: 28.5%
- viability, T/C (second compound 0.1 µM, first compound 0.0999 µM): 15.6%
- viability, T/C [4]: 9.53%
- viability, T/C (second compound 0.316 µM, first compound 0.000999 µM): 61.8%
- viability, T/C (second compound 0.316 µM, first compound 0.00316 µM): 50.7%
- viability, T/C (second compound 0.316 µM, first compound 0.00999 µM): 39.1%
- viability, T/C [5]: 28.9%
- viability, T/C (second compound 0.316 µM, first compound 0.0999 µM): 15.4%
- viability, T/C [6]: 8.17%
- viability, T/C (second compound 1 µM, first compound 0.000999 µM): 61.1%
- viability, T/C (second compound 1 µM, first compound 0.00316 µM): 57%
- viability, T/C (second compound 1 µM, first compound 0.00999 µM): 47.5%
- viability, T/C [7]: 32.3%
- viability, T/C (second compound 1 µM, first compound 0.0999 µM): 16.7%
- viability, T/C [8]: 7.43%
- viability, T/C (second compound 3.16 µM, first compound 0.000999 µM): 58.6%
- viability, T/C (second compound 3.16 µM, first compound 0.00316 µM): 54.7%
- viability, T/C (second compound 3.16 µM, first compound 0.00999 µM): 46.6%
- viability, T/C [9]: 31.1%
- viability, T/C (second compound 3.16 µM, first compound 0.0999 µM): 21.4%
- viability, T/C [10]: 9.32%
- viability, T/C (second compound 10 µM, first compound 0.000999 µM): 52.9%
- viability, T/C (second compound 10 µM, first compound 0.00316 µM): 52.7%
- viability, T/C (second compound 10 µM, first compound 0.00999 µM): 44%
- viability, T/C [11]: 32.6%
- viability, T/C (second compound 10 µM, first compound 0.0999 µM): 20.9%
- viability, T/C [12]: 9.92%
